Reference: ChEMBL document CHEMBL3886288, “Thieno[3,2-D]pyrimidine derivatives having inhibitory activity for protein kinases” (2015)

Key:
[1] = molecular target: RAF proto-oncogene serine/threonine-protein kinase (Homo sapiens, UniProt P04049, Y340D/Y341D); experiment: (§1) Kinase Activity: The compounds prepared in Examples were tested for inhibitory activity against three subtypes of RAF, i.e., RAF1 Y340D Y341D (C-RAF), B-RAF normal type and B-RAF^V600E using Kinase Profiling Service (Invitrogen, U.S.) according to the manufacturer's instructions. The levels of enzymatic inhibition of the compounds were calculated as percent inhibition at various concentrations.
[2] = molecular target: Serine/threonine-protein kinase B-raf (Homo sapiens, UniProt P15056); experiment: as §1
[3] = molecular target: Serine/threonine-protein kinase B-raf (Homo sapiens, UniProt P15056, V600E); experiment: as §1
[4] = molecular target: Macrophage colony-stimulating factor 1 receptor (Homo sapiens, UniProt P07333); experiment: Kinase Activity: The compounds prepared in Examples were tested for inhibitory activity against FMS, DDR1 and DDR2 kinases using Kinase Screening and Profiling Service (Invitrogen, U.S.).
Chain of Macrophage colony-stimulating factor 1 receptor (P07333 whole entry): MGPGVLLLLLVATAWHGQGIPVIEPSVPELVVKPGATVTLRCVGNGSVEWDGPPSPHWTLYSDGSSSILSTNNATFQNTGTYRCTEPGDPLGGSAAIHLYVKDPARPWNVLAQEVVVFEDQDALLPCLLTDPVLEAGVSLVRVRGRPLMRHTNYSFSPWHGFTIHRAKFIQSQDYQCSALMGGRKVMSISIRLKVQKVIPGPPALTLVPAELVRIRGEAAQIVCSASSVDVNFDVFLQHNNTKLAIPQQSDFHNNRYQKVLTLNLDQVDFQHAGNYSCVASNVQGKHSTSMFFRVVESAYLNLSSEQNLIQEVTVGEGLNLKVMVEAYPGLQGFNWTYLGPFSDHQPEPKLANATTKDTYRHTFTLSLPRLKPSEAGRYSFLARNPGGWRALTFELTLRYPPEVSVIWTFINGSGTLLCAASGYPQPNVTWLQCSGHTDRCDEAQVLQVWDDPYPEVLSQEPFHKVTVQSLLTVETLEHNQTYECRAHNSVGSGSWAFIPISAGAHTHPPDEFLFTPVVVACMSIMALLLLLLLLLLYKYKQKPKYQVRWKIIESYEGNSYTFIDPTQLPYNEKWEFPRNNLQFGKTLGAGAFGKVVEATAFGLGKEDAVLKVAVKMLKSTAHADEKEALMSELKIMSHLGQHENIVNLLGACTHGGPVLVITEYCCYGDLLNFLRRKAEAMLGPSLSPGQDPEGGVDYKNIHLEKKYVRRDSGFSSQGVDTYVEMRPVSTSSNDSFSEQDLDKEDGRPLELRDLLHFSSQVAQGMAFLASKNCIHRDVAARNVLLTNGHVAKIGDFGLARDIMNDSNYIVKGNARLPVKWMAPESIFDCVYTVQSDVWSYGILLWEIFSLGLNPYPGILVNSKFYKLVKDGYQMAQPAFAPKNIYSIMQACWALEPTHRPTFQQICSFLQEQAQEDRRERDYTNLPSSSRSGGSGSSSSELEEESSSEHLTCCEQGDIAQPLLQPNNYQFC

Chain of RAF proto-oncogene serine/threonine-protein kinase (P04049 whole entry Y340D/Y341D): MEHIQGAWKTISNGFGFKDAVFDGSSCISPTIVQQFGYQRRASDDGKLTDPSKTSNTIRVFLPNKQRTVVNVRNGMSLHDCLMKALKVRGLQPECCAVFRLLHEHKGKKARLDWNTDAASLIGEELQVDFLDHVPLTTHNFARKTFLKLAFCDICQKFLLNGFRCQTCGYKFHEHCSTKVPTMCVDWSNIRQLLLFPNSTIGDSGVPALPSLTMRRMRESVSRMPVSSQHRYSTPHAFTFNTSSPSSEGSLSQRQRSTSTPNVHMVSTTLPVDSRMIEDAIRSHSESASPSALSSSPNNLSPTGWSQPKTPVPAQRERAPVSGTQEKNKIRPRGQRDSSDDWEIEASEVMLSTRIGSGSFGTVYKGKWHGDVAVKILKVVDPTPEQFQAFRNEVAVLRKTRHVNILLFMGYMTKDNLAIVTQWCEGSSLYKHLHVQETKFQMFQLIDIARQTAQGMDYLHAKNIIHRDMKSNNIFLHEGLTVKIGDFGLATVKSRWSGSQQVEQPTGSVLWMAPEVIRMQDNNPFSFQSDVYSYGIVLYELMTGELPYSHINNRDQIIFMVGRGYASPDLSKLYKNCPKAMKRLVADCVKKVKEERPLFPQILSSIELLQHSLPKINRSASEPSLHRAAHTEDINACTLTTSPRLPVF
Chain of Serine/threonine-protein kinase B-raf (Homo sapiens, UniProt P15056, V600E) (P15056 2-766 V600E limits assumed): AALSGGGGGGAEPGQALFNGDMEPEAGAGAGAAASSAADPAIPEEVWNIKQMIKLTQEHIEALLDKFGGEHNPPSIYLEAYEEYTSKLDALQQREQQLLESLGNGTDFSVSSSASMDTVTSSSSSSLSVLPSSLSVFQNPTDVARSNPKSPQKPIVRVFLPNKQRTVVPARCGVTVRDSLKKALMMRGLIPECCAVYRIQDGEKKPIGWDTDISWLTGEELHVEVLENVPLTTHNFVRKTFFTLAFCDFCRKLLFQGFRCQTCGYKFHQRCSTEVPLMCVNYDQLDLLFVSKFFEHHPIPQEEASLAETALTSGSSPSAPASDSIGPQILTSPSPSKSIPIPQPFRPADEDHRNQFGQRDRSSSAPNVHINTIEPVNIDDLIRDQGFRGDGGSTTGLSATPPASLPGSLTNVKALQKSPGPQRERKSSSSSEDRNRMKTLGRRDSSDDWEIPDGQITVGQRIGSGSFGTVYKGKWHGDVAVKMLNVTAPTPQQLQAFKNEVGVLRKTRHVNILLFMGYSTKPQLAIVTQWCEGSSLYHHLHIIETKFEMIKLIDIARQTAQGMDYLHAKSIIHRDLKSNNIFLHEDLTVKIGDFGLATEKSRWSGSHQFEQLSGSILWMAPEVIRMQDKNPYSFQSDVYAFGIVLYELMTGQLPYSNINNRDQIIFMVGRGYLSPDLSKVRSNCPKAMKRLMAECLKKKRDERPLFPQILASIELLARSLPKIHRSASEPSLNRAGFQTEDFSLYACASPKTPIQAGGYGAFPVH
Chain of Serine/threonine-protein kinase B-raf (Homo sapiens, UniProt P15056) (P15056 whole entry): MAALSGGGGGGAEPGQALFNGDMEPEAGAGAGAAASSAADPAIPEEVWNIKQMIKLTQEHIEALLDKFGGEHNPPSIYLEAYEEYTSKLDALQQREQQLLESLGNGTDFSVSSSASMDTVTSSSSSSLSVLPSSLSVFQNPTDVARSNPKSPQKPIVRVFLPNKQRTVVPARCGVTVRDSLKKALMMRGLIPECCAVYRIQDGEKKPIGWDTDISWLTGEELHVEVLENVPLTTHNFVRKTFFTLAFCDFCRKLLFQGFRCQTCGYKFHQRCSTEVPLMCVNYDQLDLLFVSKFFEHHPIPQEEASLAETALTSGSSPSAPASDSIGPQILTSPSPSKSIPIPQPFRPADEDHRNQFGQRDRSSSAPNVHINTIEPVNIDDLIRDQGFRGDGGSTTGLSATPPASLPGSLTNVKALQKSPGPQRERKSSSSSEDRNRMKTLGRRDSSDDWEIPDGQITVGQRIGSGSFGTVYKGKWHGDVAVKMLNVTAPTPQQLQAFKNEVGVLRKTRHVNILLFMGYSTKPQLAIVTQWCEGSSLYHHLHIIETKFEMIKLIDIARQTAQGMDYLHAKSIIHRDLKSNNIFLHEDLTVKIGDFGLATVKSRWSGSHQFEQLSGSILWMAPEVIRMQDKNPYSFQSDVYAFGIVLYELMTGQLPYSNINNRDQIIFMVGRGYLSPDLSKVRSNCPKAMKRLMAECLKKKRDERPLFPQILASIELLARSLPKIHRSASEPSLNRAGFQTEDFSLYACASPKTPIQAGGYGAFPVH

- IC50 [1]: 5 nM
- IC50 [2]: 66 nM
- IC50 [3]: 9 nM
- IC50 [4]: 57 nM
Compound: Cc1ccc2c(Nc3cccc(Cl)c3)nccc2c1NC(=O)c1csc2c(N)ncnc12
